One series has as its system TNFα release from human peripheral blood mononuclear cells. Kind of series: Inhibition of LPS-stimulated TNFα release from human peripheral blood mononuclear cells (TNFα screen). Conditions: human PBMC stimulated with lipopolysaccharide, 18 hours incubation, TNFα in supernatant by ELISA. It is filed as cell-based. The protocol: Venous blood is collected from healthy volunteers and the mononuclear cells purified by centrifugation through Histopaque (Ficoll) cushions. TNFα production from these cells is stimulated by addition of lipopolysaccharide. After 18 hours incubation in the presence of LPS, the cell supernatant is removed and the concentration of TNFα in the supernatant determined by ELISA. Addition of PDE4 inhibitors reduces the amount of TNFα produced. An IC50 is determined which is equal to the concentration of compound that gives 50% inhibition of TNFα production as compared to the LPS stimulated control wells.
A general note: ELISA stands for enzyme-linked immunosorbent assay.
Usually IC50 stands for the midpoint of a concentration-inhibition curve. Read a high IC50 as a need for much substance. Turning to `CSc1cccc(Oc2ncc(F)cc2C(=O)N[C@H]2CC[C@@H](NC(=O)c3cc(C)ccc3O)CC2)c1` [Example 1, Syn-5-Fluoro N-[4-(2-hydroxy-5-methyl-benzoylamino)-cyclohexyl]-2-(3-methylsulfanyl-phenoxy)-nicotinamide], the IC50 was 0.4 nM.

“Syn-5-fluoro-2-(3-methylsulfanyl-phenoxy)-N-{4-[(2,3-dimethyl-1H-pyrazole-5-carbonyl)-amino]-cyclohexyl}-nicotinamide [Example 3]” gave an IC50 of 0.37 nM.

As for “Syn-5-fluoro-N-[4-(2-hydroxy-4-methyl-benzoylamino)-cyclohexyl]-2-(3-methylsulfanyl-phenoxy)-nicotinamide [Example 10]”, the midpoint of inhibition, the IC50, lay at 0.05 nM.

In turn, “Syn-5-fluoro-N-[4-(2-hydroxy-benzoylamino)-cyclohexyl]-2-(3-methylsulfanyl-phenoxy)-nicotinamide [Example 11]” had an IC50 of 0.05 nM.

In the case of “Syn-5-fluoro-N-[4-(4-hydroxy-2-methoxy-benzoylamino)-cyclohexyl]-2-(3-methylsulfanyl-phenoxy)-nicotinamide [Example 22]”, half-maximal inhibition (IC50) required 0.07 nM.

The compound “Syn-5-fluoro-N-[4-(5-chloro-2-hydroxy-benzoylamino)-cyclohexyl]-2-(3-methylsulfanyl-phenoxy)-nicotinamide [Example 5]” had a half-inhibitory concentration (IC50) of 0.15 nM.

Consider “Syn-5-fluoro-N-{4-[(1H-imidazole-5-carbonyl)-amino]-cyclohexyl}-2-(3-methylsulfanyl-phenoxy)-nicotinamide [Example 18]”, for which the IC50 was found to be 0.6 nM.

The compound “Syn-5-fluoro-N-{4-[(4-methyl-1H-imidazole-2-carbonyl)-amino]-cyclohexyl}-2-(3-methylsulfanyl-phenoxy)-nicotinamide [Example 4]” returned a half-inhibitory concentration (IC50) of 0.15 nM.

System in another series: not given
Assay: not given
Conditions: not given
A word on the melting point: it is the temperature of the solid-liquid transition. For the compound `CSc1cccc(Oc2ncc(F)cc2C(=O)N[C@H]2CCCC[C@H]2O)c1` (relative stereo) [Example 31, 5-Fluoro-N-[cis-2-hydroxy-cyclohexyl]-2-(3-methylsulfanyl-phenoxy)-nicotinamide], the melting point was in the range of 99 to 101 °C.

Take `CSc1cccc(Oc2ncc(F)cc2C(=O)N[C@H]2CCCC[C@@H]2CO)c1` (relative stereo) [Example 56, 5-Fluoro-N-[trans-2-hydroxymethyl-cyclohexyl]-2-(3-methylsulfanyl-phenoxy)-nicotinamide]: the melting point was in the range of 128 to 129 °C.

For `CSc1cccc(Oc2ncc(F)cc2C(=O)N[C@H]2CC[C@@H](CO)CC2)c1` [Example 60, 5-Fluoro-N-(cis-4-hydroxymethyl-cyclohexyl)-2-(3-methylsulfanyl-phenoxy)-nicotinamide], the melting point was in the range of 123 to 126 °C.
